The text below walks through data of patent US20220372560A1, “METHODS FOR DETECTING OLIGONUCLEOTIDES” (Takeda Pharmaceutical Company Limited, priority 2019, published 2022).

This data set is described as follows: Persistence of PMO and P-PMO in serum and tissues two weeks post-last dose (FIGS. 5a, 5b). Conditions: mice. In kind it is in vivo. The procedure:
PMO or P-PMO serial dilutions for standard curves and quality controls in 5.0% mouse serum, and 5.0 mg/ml or 1.0 mg/ml tissue homogenates were made using 1×TE buffer supplemented with 0.1% v/v Triton X-100 with a starting concentration of 51.2 nM PMO/P-PMO. Serum samples were diluted 20-fold, and tissues were homogenized and diluted to 5.0 mg/ml or 1.0 mg/ml tissue homogenates with the same buffer. 200 μL of calibrator solution, quality control, and/or sample were treated with 20 μL of 40 mg/ml trypsin (purchased as lyophilized powder from Sigma-Aldrich) at 37° C. overnight in a deep 1.0-mL 96-well plate on thermomixer C (600 rpm) to cleave the peptide component and release the PMO. 40 μL of 2.5 nM oligonucleotide probe in hybridization buffer (with 0.1% serum) was added to each well. The plate was then sealed, incubated at 65° C. for 15 minutes (600 rpm), and allowed to cool at room temperature for 15 minutes. […] The intensity of fluorescence at 444 nm excitation and 555 nm emission was measured by a […] SpectraMax MT5 microplate reader.
In order to test the persistence of oligonucleotides, serum and various tissues were also analyzed two weeks post-last dose. Serum levels for both PMO and P-PMO treated mice were measured in the 1 nM range. At this time point the overall oligonucleotide levels in the tissues analyzed were also similar (FIG. 5a). […]

As for “PMO: 25-mer PMO antisense sequence for mouse dystrophin exon-23, 5′-GGCCAAACCTCGGCTTACCTGAAAT-3′ (SEQ ID NO: 1), not conjugated to a peptide (all phosphorodiamidate morpholino (PMO))”, the serum levels is reported as roughly 1 nM. Further, the “overall oligonucleotide levels in the tissues analyzed, PMO compared with P-PMO” value (absolute concentrations (FIG. 5a)) is given as “similar”.
